System: c-Myc
Assay: c-Myc immunofluorescence assay
Assay type: cell-based, human
Settings: A549 cells, 24 hours, anti-c-Myc immunofluorescence
How it was run: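 Read-out is imaged c-Myc immunofluorescence, nucleus-segmented, in A549 lung carcinoma cells exposed to compound dose series for 24 h after 48 h growth. Fixation 4% paraformaldehyde, Triton permeabilization, antibody staining at room temperature; EC50 from logistic fit of signal versus concentration.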

| SMILES | Myc Efficacy (−LogEC50) |
| --- | --- |
| COc1ccc(-c2noc(N3CCC(C(=O)NCCOc4ccccc4)CC3)n2)cc1 [Compound 282, 1-(3-(4-methoxyphenyl)-1,2,4-oxadiazol-5-yl)-N-(2-phenoxyethyl)piperidine-4-carboxamide] | + (+ >3 and <5) |
| COc1ccc(-c2noc(N3CCC(C(=O)NC4COc5ccccc54)CC3)n2)cc1 (centres unmarked) [Compound 283, N-(2,3-dihydrobenzofuran-3-yl)-1-(3-(4-methoxyphenyl)-1,2,4-oxadiazol-5-yl)piperidine-4-carboxamide] | + (+ >3 and <5) |
| COc1ccc(-c2noc(N3CCC(C(=O)NCc4ccccc4OC(F)F)CC3)n2)cc1 [Compound 284, N-(2-(difluoromethoxy)benzyl)-1-(3-(4-methoxyphenyl)-1,2,4-oxadiazol-5-yl)piperidine-4-carboxamide] | + (+ >3 and <5) |
| COc1ccc(-c2noc(N3CCC(C(=O)NCc4cc5ccccc5[nH]4)CC3)n2)cc1 [Compound 285, N-((1H-indol-2-yl)methyl)-1-(3-(4-methoxyphenyl)-1,2,4-oxadiazol-5-yl)piperidine-4-carboxamide] | ++ (++ ≥5 and <6) |
| C#CCCC1(CCN2CCC(CNC(=O)C3CCN(c4nc(-c5ccc(OC)cc5)no4)CC3)C2)N=N1 (centres unmarked) [Compound 286, N-((1-(2-(3-(but-3-yn-1-yl)-3H-diazirin-3-yl)ethyl)pyrrolidin-3-yl)methyl)-1-(3-(4-methoxyphenyl)-1,2,4-oxadiazol-5-yl)piperidine-4-carboxamide] | ++ (++ ≥5 and <6) |
| C#CCCC1(CCOc2ccc(-c3noc(N4CCC(C(=O)NCC5CCN(Cc6ccc(C)cc6)C5)CC4)n3)cc2)N=N1 (centres unmarked) [Compound 287, 1-(3-(4-(2-(3-(but-3-yn-1-yl)-3H-diazirin-3-yl)ethoxy)phenyl)-1,2,4-oxadiazol-5-yl)-N-((1-(4-methylbenzyl)pyrrolidin-3-yl)methyl)piperidine-4-carboxamide] | +++ (+++ ≥6) |
| C#CCCC1(CCOc2cccc(-c3noc(N4CCC(C(=O)NCC5CCN(Cc6ccc(C)cc6)C5)CC4)n3)c2)N=N1 (centres unmarked) [Compound 288, 1-(3-(3-(2-(3-(but-3-yn-1-yl)-3H-diazirin-3-yl)ethoxy)phenyl)-1,2,4-oxadiazol-5-yl)-N-((1-(4-methylbenzyl)pyrrolidin-3-yl)methyl)piperidine-4-carboxamide] | ++ (++ ≥5 and <6) |
| COc1ccc(-c2noc(N3CCC(C(=O)NC4CCOC5(CCCCC5)C4)CC3)n2)cc1 (centres unmarked) [Compound 289, 1-(3-(4-methoxyphenyl)-1,2,4-oxadiazol-5-yl)-N-(1-oxaspiro[5.5]undecan-4-yl)piperidine-4-carboxamide] | + (+ >3 and <5) |
| COc1ccc(-c2noc(N3CCC(C(=O)NC4COC5(CCCCC5)C4)CC3)n2)cc1 (centres unmarked) [Compound 290, 1-(3-(4-methoxyphenyl)-1,2,4-oxadiazol-5-yl)-N-(1-oxaspiro[4.5]decan-3-yl)piperidine-4-carboxamide] | + (+ >3 and <5) |
| COc1ccc(-c2noc(N3CCC(C(=O)NC4(C5CC5)CCOCC4)CC3)n2)cc1 [Compound 291, N-(4-cyclopropyltetrahydro-2H-pyran-4-yl)-1-(3-(4-methoxyphenyl)-1,2,4-oxadiazol-5-yl)piperidine-4-carboxamide] | + (+ >3 and <5) |
| COc1ccc(-c2noc(N3CCC(C(=O)NC4(C5CCCCC5)CC4)CC3)n2)cc1 [Compound 292, N-(1-cyclohexylcyclopropyl)-1-(3-(4-methoxyphenyl)-1,2,4-oxadiazol-5-yl)piperidine-4-carboxamide] | + (+ >3 and <5) |
| COc1ccc(-c2noc(N3CCC(C(=O)NC[C@@H]4CCCC[C@H]4O)CC3)n2)cc1 [Compound 293, N-(((1S,2R)-2-hydroxycyclohexyl)methyl)-1-(3-(4-methoxyphenyl)-1,2,4-oxadiazol-5-yl)piperidine-4-carboxamide] | + (+ >3 and <5) |
| COc1ccc(-c2noc(N3CCC(C(=O)NC4CC(O)C4(C)C)CC3)n2)cc1 (centres unmarked) [Compound 294, N-(3-hydroxy-2,2-dimethylcyclobutyl)-1-(3-(4-methoxyphenyl)-1,2,4-oxadiazol-5-yl)piperidine-4-carboxamide] | + (+ >3 and <5) |
| COc1ccc(-c2noc(N3CCC(C(=O)N[C@H]4[C@@H]5CN(C)C[C@@H]54)CC3)n2)cc1 [Compound 295, 1-(3-(4-methoxyphenyl)-1,2,4-oxadiazol-5-yl)-N-((1R,5S,6s)-3-methyl-3-azabicyclo[3.1.0]hexan-6-yl)piperidine-4-carboxamide] | + (+ >3 and <5) |
| COc1ccc(-c2noc(N3CCC(C(=O)NCC4(N(C)C)Cc5ccccc5C4)CC3)n2)cc1 [Compound 296, N-((2-(dimethylamino)-2,3-dihydro-1H-inden-2-yl)methyl)-1-(3-(4-methoxyphenyl)-1,2,4-oxadiazol-5-yl)piperidine-4-carboxamide] | + (+ >3 and <5) |
| COc1ccc(-c2noc(N3CCC(C(=O)NC(C)C(C)(C)O)CC3)n2)cc1 (centres unmarked) [Compound 297, N-(3-hydroxy-3-methylbutan-2-yl)-1-(3-(4-methoxyphenyl)-1,2,4-oxadiazol-5-yl)piperidine-4-carboxamide] | + (+ >3 and <5) |
| COc1ccc(-c2noc(N3CCC(C(=O)NC4(c5nc(C)cs5)CCC4)CC3)n2)cc1 [Compound 298, 1-(3-(4-methoxyphenyl)-1,2,4-oxadiazol-5-yl)-N-(1-(4-methylthiazol-2-yl)cyclobutyl)piperidine-4-carboxamide] | + (+ >3 and <5) |
| COc1ccc(-c2noc(N3CCC(C(=O)NC(CO)CC(F)(F)F)CC3)n2)cc1 (centres unmarked) [Compound 299, 1-(3-(4-methoxyphenyl)-1,2,4-oxadiazol-5-yl)-N-(4,4,4-trifluoro-1-hydroxybutan-2-yl)piperidine-4-carboxamide] | + (+ >3 and <5) |
| COc1ccc(-c2noc(N3CCC(C(=O)NCc4cccc(OC(C)C)c4)CC3)n2)cc1 [Compound 300, N-(3-isopropoxybenzyl)-1-(3-(4-methoxyphenyl)-1,2,4-oxadiazol-5-yl)piperidine-4-carboxamide] | ++ (++ ≥5 and <6) |
| COc1ccc(-c2noc(N3CCC(C(=O)NCC4CCCc5cccnc54)CC3)n2)cc1 (centres unmarked) [Compound 301, 1-(3-(4-methoxyphenyl)-1,2,4-oxadiazol-5-yl)-N-((5,6,7,8-tetrahydroquinolin-8-yl)methyl)piperidine-4-carboxamide] | + (+ >3 and <5) |
| COc1ccc(-c2noc(N3CCC(C(=O)NC4CCN(C)c5ccccc54)CC3)n2)cc1 (centres unmarked) [Compound 302, 1-(3-(4-methoxyphenyl)-1,2,4-oxadiazol-5-yl)-N-(1-methyl-1,2,3,4-tetrahydroquinolin-4-yl)piperidine-4-carboxamide] | + (+ >3 and <5) |
| COc1ccc(-c2noc(N3CCC(C(=O)NCC4OCCc5ccccc54)CC3)n2)cc1 (centres unmarked) [Compound 303, N-(isochroman-1-ylmethyl)-1-(3-(4-methoxyphenyl)-1,2,4-oxadiazol-5-yl)piperidine-4-carboxamide] | + (+ >3 and <5) |
| COc1ccc(-c2noc(N3CCC(C(=O)NCC(c4ccccc4)N(C)C)CC3)n2)cc1 (centres unmarked) [Compound 304, N-(2-(dimethylamino)-2-phenylethyl)-1-(3-(4-methoxyphenyl)-1,2,4-oxadiazol-5-yl)piperidine-4-carboxamide] | + (+ >3 and <5) |

Source: patent US12344600B2, “c-Myc mRNA translation modulators and uses thereof in the treatment of cancer” (Anima Biotech Inc., priority 2022, dated 2025)
